According to the NIST ThermoML archive (doi:10.1021/je800047t):
Values joined by “and” are separate entries in the source; they are usually repeats but may differ in a detail not shown here. Equal entries are not always repeated.

Assay: molar heat capacity at constant pressure
Conditions: 101.33 kPa, Small sample (50 mg) DSC

O[C@@H]1CCCC[C@@H]1O [cis-1,2-cyclohexanediol]
Conditions	molar heat capacity at constant pressure
174.3 K, Crystal 2	89.6 J/K/mol
185.2 K, Crystal 2	92.7 J/K/mol
193.1 K, Crystal 2	100 J/K/mol
202.2 K, Crystal 2	101.1 J/K/mol
215.9 K, Crystal 2	111 J/K/mol
230.1 K, Crystal 2	121.1 J/K/mol
248.1 K, Crystal 2	127.3 J/K/mol
259.2 K, Crystal 2	134.9 J/K/mol
266.2 K, Crystal 2	138.2 J/K/mol
273.1 K, Crystal 2	141.4 J/K/mol
278.2 K, Crystal 2	148.8 J/K/mol
283 K, Crystal 2	151.1 J/K/mol
288.2 K, Crystal 2	152 J/K/mol and 154.2 J/K/mol
293.2 K, Crystal 2	157.8 J/K/mol and 157.6 J/K/mol
298.1 K, Crystal 2	160.4 J/K/mol
300.2 K, Crystal 2	162 J/K/mol and 163.9 J/K/mol
308.2 K, Crystal 2	168 J/K/mol and 166.4 J/K/mol
316 K, Crystal 2	171.9 J/K/mol
323.3 K, Crystal 2	175 J/K/mol
328.2 K, Crystal 2	177.2 J/K/mol
333.2 K, Crystal 2	180.8 J/K/mol
339.2 K, Crystal 2	184.3 J/K/mol
344.1 K, Crystal 2	186.2 J/K/mol
346.3 K, Crystal 2	190 J/K/mol
348.1 K, Crystal 2	191.8 J/K/mol
350.2 K, Crystal 2	192.5 J/K/mol
363.1 K, Crystal 1	279.6 J/K/mol
366.2 K, Crystal 1	284.9 J/K/mol
367.2 K, Crystal 1	290.4 J/K/mol
368.2 K, Crystal 1	292.8 J/K/mol
378.1 K, Liquid	297.9 J/K/mol
383.2 K, Liquid	300 J/K/mol
385.2 K, Liquid	302.5 J/K/mol
388 K, Liquid	304.1 J/K/mol
393.2 K, Liquid	305 J/K/mol
397.3 K, Liquid	306.3 J/K/mol
403.1 K, Liquid	310.5 J/K/mol
413.2 K, Liquid	312.8 J/K/mol

O[C@H]1CC[C@H](O)CC1 [trans-1,4-cyclohexanediol]
Conditions	molar heat capacity at constant pressure
176.5 K, Crystal	100.6 J/K/mol
183.2 K, Crystal	105.6 J/K/mol
189.1 K, Crystal	109.5 J/K/mol
198.9 K, Crystal	115.4 J/K/mol
206.9 K, Crystal	115.6 J/K/mol
215 K, Crystal	121 J/K/mol
222.2 K, Crystal	124.6 J/K/mol
230.2 K, Crystal	127.3 J/K/mol
238.3 K, Crystal	135.4 J/K/mol
258.3 K, Crystal	142.2 J/K/mol
273.2 K, Crystal	145.6 J/K/mol
278.1 K, Crystal	148.8 J/K/mol and 150.6 J/K/mol and 149 J/K/mol
283.2 K, Crystal	151 J/K/mol and 151.1 J/K/mol
288.2 K, Crystal	154 J/K/mol
293.2 K, Crystal	156.4 J/K/mol and 157.4 J/K/mol
303.2 K, Crystal	167 J/K/mol
308.1 K, Crystal	168.1 J/K/mol and 169.9 J/K/mol
313.2 K, Crystal	173 J/K/mol
323.3 K, Crystal	174 J/K/mol
333.1 K, Crystal	177.4 J/K/mol
343.2 K, Crystal	181.4 J/K/mol and 183.9 J/K/mol
353.1 K, Crystal	187.1 J/K/mol
363.2 K, Crystal	190.5 J/K/mol
373.2 K, Crystal	198 J/K/mol
393.1 K, Liquid	310.7 J/K/mol
403.2 K, Liquid	313 J/K/mol
